Data set [1] has as its system penicillin cortical focus. The data set is described as follows: EEG spike discharge in penicillin cortical focus epilepsy model (Co Q10 given after penicillin G). The data set is classed as in vivo, Male Sprague-Dawley rats. The source says:
(§1) Male Sprague-Dawley rats each having a body weight in the range of 250 to 350 g were used for the experiment.
(§2) Each test rat, anesthetized with ether and immobilized with succinylcholine was subjected to tracheal intubation and fixed to a stereotaxic instrument under artificial respiration. A hole about 3 mm in diameter was made at a part of the skull corresponding to the left-side sensory-motor cortex and the dura mater was cut out to expose the cerebral cortex surface. The skull was immersed in a physiological saline solution. A 2 mm square filter paper impregnated with […] of penicillin (penicillin G) was then applied directly to the cerebral surface to form a penicillin cortical focus. This focus is a typical epilepsy model.
Each rat skull was bared and screw electrodes, four in all, were fixedly planted at the following four locations: two sites 2 mm to the left and right, respectively, from a position 2 mm forward of the bregma, and two sites 3 mm to the left and right, respectively, from a position 6 mm rearward of the bregma. Unipolar and bipolar electroencephalograms (EEG) were recorded by the electrodes. Electrocardiogram readings were simultaneously taken. EEG lead measurements were conducted of (1) four bipolar leads comprising a lead from the left sincipital region to the left occipital region, a lead from the right sincipital region to the right occipital region, a lead from the left to the right sincipital region, and a lead from the left to the right occipital region, and (2) four unipolar leads comprising leads from each of the left sincipital region, left occipital region, right sincipital region and right occipital region.
The corticogram shown in FIG. 6 illustrates the procedure employed. The recordings were carried out from 4 epidural electrodes. LF-LO: bipolar recording from left frontal electrode (LF) to left occipital electrode (LO), RF-RO: bipolar recording from right frontal electrode (RF) to right occipital electrode (RO), LF-RF: bipolar recording from LF to RF, LO-RO: bipolar recording from LO to RO, LF-E: unipolar recording from LF, LO-E: unipolar recording from LO, RF-E: unipolar recording from RF, RO-E: unipolar recording from RO.
83.5 U/μl of penicillin G was absorbed into a 2 mm square filter paper and directly applied to the cerebral cortex surface from an opening formed around the left sensory-motor cortex. coenzyme Q10 (Co Q10) was administered intraperitoneally to each rat, and the EEG patterns were recorded in the same way as above. As a control, a solvent alone was administered intraperitoneally to control rats at the same rate.
Further experiments were conducted by the same procedure as used in Experimental Example 1, except that the time of the administration of coenzyme Q10 was changed. The results are shown in Table 1 below as Experimental Examples 2 to 4. In Table 1, PCG represents penicillin G.

In data set [2] the test system is penicillin cortical focus. The data set is described as follows: Prevention of EEG spike discharge in penicillin cortical focus model (Co Q10 given before penicillin G). The data set is classed as in vivo, Male Sprague-Dawley rats. The settings on record: Table 1, Experimental Example 4; 100 mg/kg Co Q10 first, PCG applied 64 minutes thereafter.
Description: as §1, §2
Each rat skull was bared and screw electrodes, four in all, were fixedly planted at the following four locations: two sites 2 mm to the left and right, respectively, from a position 2 mm forward of the bregma, and two sites 3 mm to the left and right, respectively, from a position 6 mm rearward of the bregma. Unipolar and bipolar electroencephalograms (EEG) were recorded by the electrodes. Electrocardiogram readings were simultaneously taken. […]

A short description of a further data set: Acute toxicity, rat. The settings on record: in vivo, read-out: acute dosages. The source says: (§3) The results of toxicity tests on coenzyme Q10 used in this invention are shown below.
The nature of the next data set: Acute toxicity, mouse. The settings on record: in vivo, read-out: acute dosages.
Description: as §3

Another data set concerns Wistar rats. The data set is described as follows: Chronic toxicity, 26 weeks per os. The data set is classed as in vivo, male and female Wistar rats. Particulars: 6, 60 and 600 mg/kg/day per os, 26 successive weeks. How it is done: Coenzyme Q10 was forcibly administered per os to both male and female Wistar rats at doses of 6, 60 and 600 mg/kg/day for a period of 26 successive weeks. After this testing period, an examination of the general condition, a blood test, a urine test and a morphological observation (macroscopic and histologic) were conducted.

The next data set in a line: Solubility. The data set is classed as physicochemical.
[3] abbreviates: Experimental Example 1, intraperitoneal.
[4] abbreviates: Table 1, Experimental Example 2, 100 mg/kg, 107 minutes after applying PCG.
The mark [5] stands for this setting: Table 1, Experimental Example 3, 100 mg/kg, 65 minutes after applying PCG.

Molecules are shown by their SMILES.

On to `COC1=C(OC)C(=O)C(C/C=C(\C)CC/C=C(\C)CC/C=C(\C)CC/C=C(\C)CC/C=C(\C)CC/C=C(\C)CC/C=C(\C)CC/C=C(\C)CC/C=C(\C)CCC=C(C)C)=C(C)C1=O` [coenzyme Q10], for which the “duration of disappearance of the spike discharge” value is “more than 200 minutes” in data set [1] (setting [3]), “more than 120 minutes” in data set [1] (setting [4]) and “more than 60 minutes” in data set [1] (setting [5]). In addition, in data set [1] (setting [3]), the “time to disappearance of the spike discharge after administration of coenzyme Q10” value is “about 10 minutes”. For the same compound, the “time to disappearance of the spike discharge after administration of Co Q10” value amounted to 20 min in data set [1] (setting [4]) and 19 min in data set [1] (setting [5]). Moreover, in data set [2], the “time during which no spike discharge occurred” value is “more than 80 minutes”. Besides, the LD50 was found to be 500 mg/kg in the data set “Acute toxicity, rat” (im, intramuscular); 250 mg/kg in “Acute toxicity, rat” (iv, Intravous); 4000 mg/kg in the data set “Acute toxicity, rat” (oral); 500 mg/kg in the data set “Acute toxicity, rat” (sc, subcutaneous); 500 mg/kg in the data set “Acute toxicity, mouse” (im, intramuscular); 250 mg/kg in “Acute toxicity, mouse” (iv, Intravous). For the same compound, the LD50 worked out at 4000 mg/kg in “Acute toxicity, mouse” (oral) and 500 mg/kg in “Acute toxicity, mouse” (sc, subcutaneous). Further, the “general condition, blood test, urine test and morphological observation vs control group” value in the data set on Wistar rats is reported as “No differences at all from the control group were observed”. Moreover, the solubility entry in the data set “Solubility” (in chloroform, benzene, carbon tetrachloride, acetone and ether) is on record as “soluble”; in the data set “Solubility” (in ethanol, water and methanol), “insoluble”.

Values taken from patent US4491594A, “Method for treatment of seizures” (Eisai Co., Ltd., priority 1983, dated 1985).
